Measurements published in US20210137950A1, “Pharmaceutical Composition for Treating Cerebral Infarction” (Kyoto University, priority 2018, published 2021).

How the values were obtained:
NeuN = test: Western blotting of NeuN in cerebral cortex after transient focal cerebral ischemia; format: in vivo; conditions: CB-17 mice, KUS121 before ischemia
Method: Cells were collected and lysed in RIPA buffer (20 mM HEPES-KOH pH 7.4, 150 mM NaCl, 2 mM EDTA, 1% Nonidet-P40, 1% sodium deoxycholate) containing 10% 2-mercaptoethanol (Nacalai tesque) and 1% protease inhibitor (Nacalai tesque). Dissected brain samples were homogenized in the RIPA buffer with 2-mercaptomethanol and protease inhibitor. Samples were sonicated and centrifuged at 4° C., 15,000 rpm for 15 minutes, and the supernatants were collected. Proteins (15-20 μg per lane) were loaded, and were separated by 5-20% SDS-PAGE and transferred to polyvinylidene fluoride membranes (Millipore). The following primary antibodies were used: β-actin (1:5000, Sigma Aldrich, A5441), CHOP (1:1000, Cell Signaling Technology, L63F7), NeuN (1:2000, Merck Millipore, ABN78), VCP (1:500, ABGENT, AP6920b). HRP-labeled secondary antibodies (Santa Cruz Biotechnology) were used for visualization by enhanced chemiluminescence (Nacalai tesque). […]
In CB-17 mice, distal middle cerebral artery occlusion (distal MCAO) was performed as previously described with minor modifications (Kasahara Y, Ihara M, Nakagomi T, et al. A highly reproducible model of cerebral ischemia/reperfusion with extended survival in CB-17 mice. Neuroscience Research, 2013 July; 76(3):163-8). […] During surgery, rectal temperature was monitored and controlled at 36.0-37.2° C. by a feedback-regulated heating pad. […]

C57BL/6 mice [1] = test: Accelerating rotarod test after transient focal cerebral ischemia (distal MCAO with hypoxia); format: in vivo; conditions: KUS121 immediately after occlusion (100 mg/kg intravenously and 50 mg/kg intraperitoneally), 24 hours after occlusion, vehicle (5% Cremophor) 134.5±18.4, p<0.05, mean±SE
Method: (§1) Adult male C57BL/6 (C57BL/6NJcl) and CB-17 (CB-17/lcr-+/+Jcl) mice (6-7 weeks old) were purchased from Shimizu Laboratory supplies and Clea Japan, respectively. Animals were allowed access to food and water ad libitum.
(§2) In C57BL/6 mice, distal MCAO with hypoxia was performed as previously described with some modifications (Doyle K P, Fathali N, Siddiqui M R, et al. Distal hypoxic stroke: a new mouse model of stroke with high throughput, low variability and a quantifiable functional deficit. Journal of Neuroscience Methods, 2012 May 30; 207(1):31-40). Mice were placed in a large chamber containing 10% oxygen and 90% nitrogen after the occlusion of the distal MCA by a nylon suture. After 30 minutes of hypoxia, mice were returned to normoxic condition with removal of the nylon suture. Sham surgery were identical to the stroke surgery, except for the occlusion of the distal MCA.
Twenty-four hours after ischemia, mice were placed on an accelerating rotarod apparatus, in which the speed was accelerated from 0 to 40 rpm over 4 minutes. The time for which mice can remain on the rotating cylinder was measured. Three trials were performed and the best latency to fall was used. […]

[2] = tested on: C/EBP-homologous protein (CHOP); test: Western blot of CHOP expression after tunicamycin treatment (ER stress); format: cell-based, rat; conditions: 0.25 μg/mL tunicamycin for 6 hours
Method: (§3) Cortical neuronal cultures were prepared from 17-day-old Sprague Dawley rat embryos (Shimizu Laboratory Supplies) using methods described earlier (Maki T, et al, Annals of Clinical and Translational Neurology, 2014 August; 1(8):519-33). Briefly, cortices were dissected and dissociated. Cells were plated on dishes coated with poly-D-lysine in Dulbecco's modified Eagle's medium (DMEM) containing 5% heat-inactivated fetal bovine serum and 1% penicillin/streptomycin at a density of 200,000-250,000 cells/cm^2. At 24-hour after seeding, the medium was changed to Neurobasal (NB) medium containing 0.5 mM glutamine, 1% penicillin/streptomycin and 2% B27 supplement. Cultured neurons were used for experiments 14 days after seeding.
Cells were collected and lysed in RIPA buffer (20 mM HEPES-KOH pH 7.4, 150 mM NaCl, 2 mM EDTA, 1% Nonidet-P40, 1% sodium deoxycholate) containing 10% 2-mercaptoethanol (Nacalai tesque) and 1% protease inhibitor (Nacalai tesque). Dissected brain samples were homogenized in the RIPA buffer with 2-mercaptomethanol and protease inhibitor. Samples were sonicated and centrifuged at 4° C., 15,000 rpm for 15 minutes, and the supernatants were collected. Proteins (15-20 μg per lane) were loaded, and were separated by 5-20% SDS-PAGE and transferred to polyvinylidene fluoride membranes (Millipore). […]

primary cortical neurons [3] = test: MAP2 immunocytochemistry after OGD; format: cell-based, rat; conditions: 100 μM KUS, vehicle (DMSO) 0.87±0.13%, p<0.05, mean±SE
Method: as §3
(§4) The medium was replaced with DMEM with no glucose. Then, the cells were placed into the sealed Anaero container with an Anaero Pack (Mitsubishi Gas Chemical Company) for 1.5-2 hours. Following oxygen glucose deprivation, cells were switched to the normal medium and returned to a normoxic 5% CO2 incubator.
The cells were washed twice with phosphate buffered saline (PBS), followed by 4% paraformaldehyde (PFA) for 15 minutes. After being further washed twice with PBS, they were incubated with PBS/0.1% Tween (10 min) and blocked with 3% BSA/PBS (1 hour at room temperature). […]

CB-17 mice = test: Infarction volume after transient focal cerebral ischemia (distal MCAO); format: in vivo; conditions: KUS121 immediately before the ischemia, vehicle (5% Cremophor) 11.8±0.60%, p<0.05, mean±SE
Method: as §1
In CB-17 mice, distal middle cerebral artery occlusion (distal MCAO) was performed as previously described with minor modifications (Kasahara Y, Ihara M, Nakagomi T, et al. A highly reproducible model of cerebral ischemia/reperfusion with extended survival in CB-17 mice. Neuroscience Research, 2013 July; 76(3):163-8). In brief, general anesthesia was induced and maintained by inhalation of 4% and 1.5% isoflurane (Pfizer), respectively. Mice were placed in a lateral position, and a skin incision was made between the left eyeball and the left external auditory canal. The left salivary gland and a part of the temporalis muscle were resected to allow visualization of the middle cerebral artery (MCA) through the cranial bone. A burr hole was made in the cranial bone. […] During surgery, rectal temperature was monitored and controlled at 36.0-37.2° C. by a feedback-regulated heating pad.
Mice were deeply anesthetized and perfused transcardially with PBS and 4% PFA 24 hours after ischemia. […] The area of the ipsilateral hemisphere and the area of the infarct on each section were measured using NIH imageJ software. […]

C57BL/6 mice [4] = test: Infarction volume after transient focal cerebral ischemia (distal MCAO with hypoxia); format: in vivo; conditions: KUS121 immediately after occlusion (100 mg/kg intravenously and 50 mg/kg intraperitoneally), 24 hours after ischemia, vehicle (5% Cremophor) 8.8±0.63%, p<0.05, mean±SE
Method: as §1, §2
Mice were deeply anesthetized and perfused transcardially with PBS and 4% PFA 24 hours after ischemia. The brains were extracted and post-fixed in 4% PFA for 48 hours. They were further cryoprotected in 20% sucrose until they sunk to the bottom of the vial. […] The area of the ipsilateral hemisphere and the area of the infarct on each section were measured using NIH imageJ software. […]

primary cortical neurons [5] = test: Cell viability test (CCK-8) after oxygen-glucose deprivation (OGD); format: cell-based, rat; conditions: for neuronal viability after OGD: 2 hours OGD + 22 hours recovery, vehicle (DMSO) 18.1±1.9%, p<0.001, mean±SE
Method: as §3, §4
Cell viability was assessed by Cell Counting Kit-8 (CCK-8) assay (Dojindo Laboratories). The CCK-8 assay is based on the conversion of a water-soluble tetrazolium salt, 2-(2-methoxy-4-nitrophenyl)-3-(4-nitrophenyl)-5-(2,4-disulfophenyl)-2H-tetrazolium, monosodium salt (WST-8), to a water-soluble formazan dye upon reduction by dehydrogenases in the presence of an electron carrier. The cells were incubated with 10% CCK-8 solution for 1-2 hour at 37° C. Then the absorbance of the culture medium was measured with a microplate reader at a test wavelength of 450 nm and a reference wavelength of 630 nm.
To assess protective effects of KUS121 on neurons in ischemic conditions, cell viability tests were performed after oxygen-glucose deprivation (OGD) in both the presence and the absence of KUS121 (FIG. 1, top). OGD was performed in rat cortical primary neuronal cultures for 2 hours with subsequent recovery at 21% 02 and glucose-containing media for further 22 hours. Control neurons were kept at 21% 02 in glucose-containing media for 24 hours. […]

primary cortical neurons [6] = test: ATP assay (luciferase-based) after OGD; format: cell-based, rat
Method: as §3
The medium was replaced with DMEM with no glucose. Then, the cells were placed into the sealed Anaero container with an Anaero Pack (Mitsubishi Gas Chemical Company) for 1.5-2 hours. […]
ATP levels in cell lysates were measured with luciferase chemiluminescence-based ATP assay reagent for cells (Toyo Ink) in accordance with the manufacturer's protocol. […] After incubating for 5 minutes at room temperature, luminescence of an aliquot of the solution was measured in a luminometer.
Cellular ATP levels were measured by the luciferase-based assay after 1.5 hour OGD. […]

What does the source list for `Cc1cc(F)ccc1-c1ccc(N=Nc2cc(S(=O)(=O)[O-])c3ccccc3c2N)cn1.[Na+]` [KUS121, 4-amino-3-[6-(4-fluoro-2-methylphenyl)pyridine-3-ylazo]naphthalene-1-sulfonic acid sodium salt]?
expression of NeuN in cerebral cortex (NeuN): preserved; rotarod retention time (C57BL/6 mice [1]): 201.0 ± 21.8 s; expression of CHOP [2]: suppressed; MAP2-positive area (primary cortical neurons [3]): 2.64±0.41%; infarction volumes (CB-17 mice): 5.74±1.64%; infarction volumes (C57BL/6 mice [4]): 4.7±1.70%; neuronal viability after OGD (primary cortical neurons [5]; 100 μM KUS throughout): 43.5±3.1%; neuronal viability after OGD (primary cortical neurons [5]; 200 μM KUS throughout): 42.4±3.7%; neuronal viability without OGD (primary cortical neurons [5]; without OGD): no effect; ATP levels (primary cortical neurons [6]; 100 μM KUS, after 1.5 hour OGD, vehicle (DMSO) 14.3±1.1%, p<0.001, mean±SE): 28.0±2.3%; ATP levels without OGD (primary cortical neurons [6]; without OGD): no effect
